Results taken from patent publication US20230086702A1, “SUBSTITUTED 2-AMINO-PYRAZOLYL-[1,2,4]TRIAZOLO[1,5A]PYRIDINE DERIVATIVES AND USE THEREOF” (The Johns Hopkins University, priority 2019, published 2023).
pIC50: −log10 of the molar value.

What was measured:
LZK = target: T1, LZK (Homo sapiens, UniProt O43283); experiment: LZK biochemical assay (TR-FRET, MKK7 phosphorylation)
T1 construct: 10 nM LZK, catalytic domain, Carna Biosiences in assay buffer; purchased Carna Biosciences ('Carna Biosiences' [sic])
T1 sequence (O43283 168-409 limits assumed): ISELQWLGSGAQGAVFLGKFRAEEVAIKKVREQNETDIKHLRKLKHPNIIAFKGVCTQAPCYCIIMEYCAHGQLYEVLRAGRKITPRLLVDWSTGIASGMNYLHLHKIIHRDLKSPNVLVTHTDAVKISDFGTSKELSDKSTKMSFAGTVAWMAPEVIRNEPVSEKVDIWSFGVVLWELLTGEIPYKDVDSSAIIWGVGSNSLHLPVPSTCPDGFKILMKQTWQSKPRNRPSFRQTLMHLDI
Outline: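 Read-out is HTRF: Eu-labelled anti-phospho-MKK7 (T275/S277) and XL665 anti-His, incubated 16 h at 32 °C, with a drop in signal marking inhibition. Reaction beforehand: 10 nM LZK kinase domain, 15 nM His-MKK7, 15 µM ATP (final) for 90 min at room temperature, pH 7.5.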

DLK = target: T2, DLK (Homo sapiens, UniProt Q12852); experiment: DLK biochemical assay (TR-FRET, MKK7 phosphorylation)
T2 construct: 10 nM DLK, catalytic domain, Carna Biosiences; purchased Carna Biosciences ('Carna Biosiences' [sic])
T2 sequence (Q12852 125-366 limits assumed): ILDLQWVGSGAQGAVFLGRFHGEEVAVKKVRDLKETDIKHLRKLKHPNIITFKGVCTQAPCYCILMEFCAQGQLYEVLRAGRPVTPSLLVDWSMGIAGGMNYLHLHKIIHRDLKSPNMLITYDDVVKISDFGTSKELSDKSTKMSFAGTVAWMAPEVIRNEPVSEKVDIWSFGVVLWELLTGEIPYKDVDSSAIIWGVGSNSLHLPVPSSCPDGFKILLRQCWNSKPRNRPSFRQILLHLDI
Outline: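 TR-FRET read-out (665/Eu ratio) of MKK7 T275/S277 phosphorylation, with inhibition lowering the signal. Final conditions: 10 nM DLK catalytic domain, 15 nM MKK7, 60 μM ATP, 90 min at RT. Detection incubation 16 h at 37° C in 1536-well or 4° C in 384-well format.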

In the case of `CCC(c1ccc(N2CCOCC2)cc1)n1cc(-c2cc(-c3cnn(CC(F)(F)F)c3)c3nc(N)nn3c2)cn1` (single isomer, unassigned) [II-103, 6-(1-{1-[4-(Morpholin-4-yl)phenyl]propyl}-1H-pyrazol-4-yl)-8-[1-(2,2,2-trifluoroethyl)-1H-pyrazol-4-yl][1,2,4]triazolo[1,5-a]pyridin-2-amine], the pIC50 (LZK) was 6.80 and the pIC50 (DLK) was 7.19.
`CC[C@@H](c1ccccc1)n1cc(-c2cc(-c3cnn(C(C)C(F)(F)F)c3)c3nc(N)nn3c2)cn1` (single isomer, unassigned) [II-96] showed a pIC50 (LZK) of 7.22 and a pIC50 (DLK) of 7.77.
Compound `CC[C@@H](c1ccccc1)n1cc(-c2cc(-c3cnn(CC(F)(F)F)c3)n3nc(N)nc3c2)cn1` [II-127, 7-{1-[(1S)-1-Phenylpropyl]-1H-pyrazol-4-yl}-5-[1-(2,2,2-trifluoroethyl)-1H-pyrazol-4-yl][1,2,4]triazolo[1,5-a]pyridin-2-amine] has a pIC50 (LZK) of 7.00 and a pIC50 (DLK) of 8.08.
With `Nc1nc2c(-c3ccc(=O)n(C(F)F)c3)cc(-c3cnn(C(c4ccc(C(F)(F)F)nc4)C4CCOCC4)c3)cn2n1` (single isomer, unassigned) [II-154, 5-[2-Amino-6-(1-{tetrahydro-2H-pyran-4-yl[6-(trifluoromethyl)pyridin-3-yl]methyl}-1H-pyrazol-4-yl)[1,2,4]triazolo[1,5-a]pyridin-8-yl]-1-(difluoromethyl)pyridin-2(1H)-one] the pIC50 (LZK) was 7.82 and the pIC50 (DLK) was 8.21.
Compound `Nc1nc2cc(-c3cnn(C(c4ccc(C(F)(F)F)nc4)C4CCOCC4)c3)cc(-c3ccnc(C(F)(F)F)c3)n2n1` (single isomer, unassigned) [II-36, 7-(1-{Tetrahydro-2H-pyran-4-yl[6-(trifluoromethyl)pyridin-3-yl]methyl}-1H-pyrazol-4-yl)-5-[2-(trifluoromethyl)pyridin-4-yl][1,2,4]triazolo[1,5-a]pyridin-2-amine] has a pIC50 (LZK) of 8.10 and a pIC50 (DLK) of 8.20.
`Nc1nc2cc(-c3cnn(C(c4ccc(C(F)(F)F)nc4)C4CCOCC4)c3)cc(-c3ccc(=O)n(C(F)F)c3)n2n1` (stereo not drawn) [II-182] was tested, and the pIC50 (LZK) was 8.19 and the pIC50 (DLK) was 8.40.
`CC(C)C(c1ccc(C(F)(F)F)nc1)n1cc(-c2cc(-c3cnn(CC4CC4(F)F)c3)n3nc(N)nc3c2)cn1` (stereo not drawn) [II-142] was tested, and the pIC50 (LZK) was 7.92 and the pIC50 (DLK) was 8.08.
For `CC(C)(O)c1cccc(-c2cc(-c3cnn(C(c4ccc(C(F)(F)F)nc4)C4CCOCC4)c3)cn3nc(N)nc23)c1` (single isomer, unassigned) [II-12, 2-{3-[2-Amino-6-(1-{tetrahydro-2H-pyran-4-yl[6-(trifluoromethyl)pyridin-3-yl]methyl}-1H-pyrazol-4-yl)[1,2,4]triazolo[1,5-a]pyridin-8-yl]phenyl}propan-2-ol], the pIC50 (LZK) was 8.92 and the pIC50 (DLK) was 9.22.
`CCC(c1ccc(C(F)(F)F)nc1)n1cc(-c2cc(-c3ccc(=O)n(CC(F)(F)F)c3)n3nc(N)nc3c2)cn1` (stereo not drawn) [II-188] gave a pIC50 (LZK) of 8.00 and a pIC50 (DLK) of 8.15.
Work on `Nc1nc2cc(-c3cnn(C(c4ccc(C(F)F)nc4)C4CCOCC4)c3)cc(-c3ccc(C(F)(F)F)nc3)n2n1` (racemic) [II-76, 7-(1-{[6-(Difluoromethyl)pyridin-3-yl](tetrahydro-2H-pyran-4-yl)methyl}-1H-pyrazol-4-yl)-5-[6-(trifluoromethyl)pyridin-3-yl][1,2,4]triazolo[1,5-a]pyridin-2-amine] yielded a pIC50 (LZK) of 7.80 and a pIC50 (DLK) of 7.68.
`CC(C)c1nnc(-c2cc(-c3cnn(Cc4ccccc4)c3)cn3nc(N)nc23)s1` [II-198, 6-(1-Benzyl-1H-pyrazol-4-yl)-8-[5-(propan-2-yl)-1,3,4-thiadiazol-2-yl][1,2,4]triazolo[1,5-a]pyridin-2-amine] showed a pIC50 (LZK) of 6.59 and a pIC50 (DLK) of 6.82.
In the case of `Nc1nc2cc(-c3cnn(C(c4ccc(C(F)(F)F)nc4)C4CCOCC4)c3)cc(-c3cn(CC(F)(F)F)c(=O)cn3)n2n1` (single isomer, unassigned) [II-195, 5-[2-Amino-7-(1-{tetrahydro-2H-pyran-4-yl[6-(trifluoromethyl)pyridin-3-yl]methyl}-1H-pyrazol-4-yl)[1,2,4]triazolo[1,5-a]pyridin-5-yl]-1-(2,2,2-trifluoroethyl)pyrazin-2(1H)-one], the pIC50 (LZK) was 8.28 and the pIC50 (DLK) was 8.96.
With `CC[C@@H](c1ccccc1)n1cc(-c2cc(-c3cnn(C4CC4)c3)c3nc(N)nn3c2)cn1` [II-92, 8-(1-Cyclopropyl-1H-pyrazol-4-yl)-6-{1-[(1S)-1-phenylpropyl]-1H-pyrazol-4-yl}[1,2,4]triazolo[1,5-a]pyridin-2-amine] the pIC50 (LZK) was 6.82 and the pIC50 (DLK) was 8.17.
Work on `Nc1nc2cc(-c3cnn(C(c4ccc(C(F)(F)F)nc4)C4CCOCC4)c3)cc(-c3ccc(=O)n(CC(F)(F)F)c3)n2n1` (single isomer, unassigned) [II-192, 5-[2-Amino-7-(1-{tetrahydro-2H-pyran-4-yl[6-(trifluoromethyl)pyridin-3-yl]methyl}-1H-pyrazol-4-yl)[1,2,4]triazolo[1,5-a]pyridin-5-yl]-1-(2,2,2-trifluoroethyl)pyridin-2(1H)-one] yielded a pIC50 (LZK) of 8.66 and a pIC50 (DLK) of 8.89.
`CCC(c1ccc(C(F)(F)F)cc1)n1cc(-c2cc(-c3cnn(C4CCCC4)c3)n3nc(N)nc3c2)cn1` (stereo not drawn) [II-132] was tested, and the pIC50 (LZK) was 6.92 and the pIC50 (DLK) was 7.15.
`CC[C@@H](c1ccc(C(F)(F)F)nc1)n1cc(-c2cc(-c3cnn(CC(F)(F)F)c3)c3nc(N)nn3c2)cn1` (single isomer, unassigned) [II-112, 8-[1-(2,2,2-trifluoroethyl)-1H-pyrazol-4-yl]-6-(1-{1-[6-(trifluoromethyl)pyridin-3-yl]propyl}-1H-pyrazol-4-yl)[1,2,4]triazolo[1,5-a]pyridin-2-amine] gave a pIC50 (LZK) of 7.77 and a pIC50 (DLK) of 8.33.
In the case of `Nc1nc2c(-c3cc(CO)ccc3Cl)cc(-c3cnn(C(c4ccc(C(F)(F)F)nc4)C4CCOCC4)c3)cn2n1` (single isomer, unassigned) [II-6, {3-[2-Amino-6-(1-{tetrahydro-2H-pyran-4-yl[6-(trifluoromethyl)pyridin-3-yl]methyl}-1H-pyrazol-4-yl)[1,2,4]triazolo[1,5-a]pyridin-8-yl]-4-chlorophenyl}methanol], the pIC50 (LZK) was 8.17 and the pIC50 (DLK) was 7.34.
`CCC(c1ccc(C(F)(F)F)nc1)n1cc(-c2cc(-c3cnn(CC(F)(F)F)c3)c3nc(N)nn3c2)cn1` (single isomer, unassigned) [II-113, 8-[1-(2,2,2-trifluoroethyl)-1H-pyrazol-4-yl]-6-(1-{1-[6-(trifluoromethyl)pyridin-3-yl]propyl}-1H-pyrazol-4-yl)[1,2,4]triazolo[1,5-a]pyridin-2-amine] gave a pIC50 (LZK) of 7.23 and a pIC50 (DLK) of 7.64.
With `Nc1nc2cc(-c3cnn(C(c4ccc(C(F)(F)F)nc4)C4CCOCC4)c3)cc(-c3cnn(CC(F)(F)F)c3)n2n1` (single isomer, unassigned) [II-151, 7-(1-{Tetrahydro-2H-pyran-4-yl[6-(trifluoromethyl)pyridin-3-yl]methyl}-1H-pyrazol-4-yl)-5-[1-(2,2,2-trifluoroethyl)-1H-pyrazol-4-yl][1,2,4]triazolo[1,5-a]pyridin-2-amine] the pIC50 (LZK) was 7.96 and the pIC50 (DLK) was 7.96.
With `Nc1nc2cc(-c3cnn(C(c4ccc(C(F)(F)F)nc4)C4CCOCC4)c3)cc(-c3ccc(=O)n(CC(F)F)c3)n2n1` (single isomer, unassigned) [II-187, 5-[2-Amino-7-(1-{tetrahydro-2H-pyran-4-yl[6-(trifluoromethyl)pyridin-3-yl]methyl}-1H-pyrazol-4-yl)[1,2,4]triazolo[1,5-a]pyridin-5-yl]-1-(2,2-difluoroethyl)pyridin-2(1H)-one] the pIC50 (LZK) was 9.30 and the pIC50 (DLK) was 9.70.
`CC(C)C(c1ccc(C(F)F)nc1)n1cc(-c2cc(-c3ccc(OC(F)F)nc3)n3nc(N)nc3c2)cn1` (racemic) [II-49, 5-[6-(Difluoromethoxy)pyridin-3-yl]-7-(1-{1-[6-(difluoromethyl)pyridin-3-yl]-2-methylpropyl}-1H-pyrazol-4-yl)[1,2,4]triazolo[1,5-a]pyridin-2-amine] showed a pIC50 (LZK) of 7.08 and a pIC50 (DLK) of 7.51.
`Nc1nc2cc(-c3cnn(C(c4ccccc4)C4CCOCC4)c3)cc(-c3cnn(CC(F)(F)F)c3)n2n1` (stereo not drawn) [II-146] gave a pIC50 (LZK) of 6.70 and a pIC50 (DLK) of 8.44.
Compound `CC[C@@H](c1ccc(C(F)(F)F)nc1)n1cc(-c2cc(-c3ccc(=O)n(CC(F)(F)F)c3)c3nc(N)nn3c2)cn1` [II-159, 5-[2-Amino-6-(1-{(1S)-1-[6-(trifluoromethyl)pyridin-3-yl]propyl}-1H-pyrazol-4-yl)[1,2,4]triazolo[1,5-a]pyridin-8-yl]-1-(2,2,2-trifluoroethyl)pyridin-2(1H)-one] has a pIC50 (LZK) of 8.21 and a pIC50 (DLK) of 8.62.
Compound `CCC(c1ccc(N2CCOCC2)cc1)n1cc(-c2cc(-c3cnn(CC(F)(F)F)c3)c3nc(N)nn3c2)cn1` (racemic) [II-102, 6-(1-{1-[4-(Morpholin-4-yl)phenyl]propyl}-1H-pyrazol-4-yl)-8-[1-(2,2,2-trifluoroethyl)-1H-pyrazol-4-yl][1,2,4]triazolo[1,5-a]pyridin-2-amine] has a pIC50 (LZK) of 6.85 and a pIC50 (DLK) of 8.24.
